Each structure is given as a SMILES string.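 Exposure lasted 48 hours, with cells grown in 96-well plates and compounds tested at five concentrations. TGI is the concentration that stops growth completely.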 Bounds are passed on as bounds.

What all share (assay): NCI-60 cell line screen, 48 h
The subject of assay [1] is OVCAR-5 ovarian.
In assay [2] the test system is MOLT-4 leukemia.
For assay [3], the system named is PC-3 prostate.
For assay [4], the system named is SR leukemia.
The test system of assay [5] is SK-OV-3 ovarian.
For assay [6], the system named is UACC-62 melanoma.
For assay [7], the system named is RXF 393 renal.
In assay [8] the test system is 786-0 renal.
For assay [9], the system named is HCT-15 colon.
For assay [10], the system named is NCI/ADR-RES ovarian.
For assay [11], the system named is IGROV1 ovarian.

As for `CC(C)NC(=O)OCCN=c1c2ccccc2ccc2ccccc12`, the TGI in assay [1] is above 100 µM; in assay [2] it was 71.2 µM; in assay [3] it was 72.5 µM; in [4], 80.6 µM; in [5], above 100 µM; in assay [6], above 100 µM. For the same molecule, the TGI in assay [7], in [8], in assay [9], in assay [10] and in assay [11] was above 100 µM in each case.
Regarding `C#C[C@]1(O)CC[C@H]2[C@@H]3CCC4=C/C(=N/OC(=O)c5cccc6c(=O)c7ccccc7[nH]c56)CC[C@@H]4[C@H]3CC[C@@]21C`, the TGI in assay [1] was above 100 µM; in assay [2], 38.1 µM; in assay [3], above 100 µM; in [4] it was 33.2 µM; in [5] it was above 100 µM; in [6], above 100 µM. Moreover, the TGI in assay [7], in assay [8], in assay [9], in assay [10] and in assay [11] was above 100 µM throughout.
`N#Cc1c(Cl)cc(Cl)n2c1nc1ccccc12`: the TGI was 41.9 µM in [1]; above 28.8 µM in assay [2]; 29.3 µM in assay [3]; above 29.6 µM in [4]; 31.2 µM in assay [5]; 29.8 µM in assay [6]. The TGI in [7] came to 26.7 µM; in [8], 7.63 µM; in assay [9] it was 12.3 µM; in assay [10], 40.5 µM; in assay [11], 38.7 µM.
Turning to `[N-]=[N+]=NC1=C(c2ccccn2)C(=O)c2cccc3cccc1c23`, the TGI in [1] was above 100 µM; in assay [2], 6.16 µM; in [3], above 100 µM; in [4], above 100 µM; in assay [5], above 100 µM; in assay [6], above 100 µM. Besides, the TGI in assay [7], in [8], in assay [9], in assay [10] and in assay [11] was above 100 µM in each case.
Take `CCOC(=O)NC(Nc1ccc([N+](=O)[O-])cc1)(C(F)(F)F)C(F)(F)F`: the TGI in [1], in [2], in [3], in assay [4], in assay [5] and in assay [6] was above 100 µM each time. In addition, the TGI was 97.1 µM in [7]; above 100 µM in assay [8]; above 100 µM in assay [9]; above 100 µM in assay [10]; above 100 µM in assay [11].
For `CC(C)(C)C(=O)CC1=Nc2ccccc2SC1(O)CC(=O)C(C)(C)C` (configuration not stated), the TGI in assay [1] was 69 µM; in assay [2] it was 24.3 µM; in [3], 73.6 µM; in [4], 33 µM; in assay [5] it was 53.6 µM; in assay [6], 31.3 µM. Besides, the TGI in assay [7] worked out at 65.8 µM; in assay [8], 68.3 µM; in assay [9], 52.8 µM; in assay [10], 66.8 µM; in [11] it was 61.2 µM.
`CSc1cnc2ccccc2c1SC1CN(Cc2ccccc2)c2ccccc2C1=O` (configuration not stated): the TGI in [1], in assay [2], in assay [3], in assay [4], in assay [5] and in assay [6] was above 100 µM throughout. The TGI in assay [7], in assay [8], in assay [9], in assay [10] and in assay [11] was above 100 µM each time.
For the molecule `Nc1ccc(C(=O)N2CCC[C@H]2CO)c(N)c1`, the TGI in assay [1], in [2], in assay [3], in assay [4], in assay [5] and in [6] was above 100 µM in each case. Moreover, the TGI in [7], in assay [8], in assay [9], in assay [10] and in [11] was above 100 µM throughout.
`CCOC(=O)C1C2CCC1CC(=NNc1ccc([N+](=O)[O-])cc1[N+](=O)[O-])C2` (configuration not stated): the TGI in assay [1], in [2], in [3], in [4], in assay [5] and in assay [6] was above 50 µM throughout. Besides, the TGI in assay [7], in [8], in [9], in assay [10] and in assay [11] was above 50 µM each time.
In the case of `O=C1c2cccnc2-c2nccc3c2c1nc1cc(Br)ccc13`, the TGI in assay [1] was 0.527 µM; in [2] it was 0.854 µM; in [3], 1.12 µM; in [4], 0.0617 µM; in assay [5] it was 0.706 µM; in assay [6], 0.373 µM. For the same molecule, the TGI in assay [7] was 0.355 µM; in assay [8] it was 0.188 µM; in [9] it was 0.25 µM; in [10], 0.0711 µM; in assay [11], 0.31 µM.
As for `C[N+]12CCCCC1C(CN1C(=O)Cc3c4ccccc4c(c4ccccc34)CC1=O)CCC2` (configuration not stated), the TGI in [1], in assay [2], in assay [3], in [4], in [5] and in assay [6] was above 100 µM each time. Besides, the TGI in assay [7], in assay [8], in assay [9], in assay [10] and in assay [11] was above 100 µM throughout.
`CC(=O)[C@@]1(O)CC[C@H]2[C@@H]3C[C@H](C)C4=CC(=O)C=C[C@]4(C)[C@@]3(F)[C@@H](O)C[C@@]21C`: the TGI in [1], in assay [2], in assay [3], in assay [4], in assay [5] and in [6] was above 100 µM in each case. The TGI in assay [7], in [8], in assay [9], in assay [10] and in assay [11] was above 100 µM each time.

(Values after PubChem BioAssay (NCI).)
